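Exposure lasted 48 hours, with cells grown in 96-well plates and compounds tested at five concentrations. At the GI50, growth is halved. The concentration for full growth arrest is given as TGI.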
Legend:
Experiment in all cases: growth of human tumour cells (NCI), 48 h
CAKI-1 renal = tested on: CAKI-1 renal
HOP-92 NSCLC = tested on: HOP-92 NSCLC
HT29 colon = tested on: HT29 colon
K-562 leukemia = tested on: K-562 leukemia
MDA-MB-231 breast = tested on: MDA-MB-231 breast
MDA-MB-435 = tested on: MDA-MB-435
NCI-H460 lung = tested on: NCI-H460 lung
SF-295 CNS = tested on: SF-295 CNS
SNB-19 CNS = tested on: SNB-19 CNS
UACC-62 melanoma = tested on: UACC-62 melanoma

Nc1nc(-c2cccs2)cs1
TGI (CAKI-1 renal): > 100 µM
TGI (HOP-92 NSCLC): > 100 µM
TGI (HT29 colon): > 100 µM
TGI (K-562 leukemia): > 100 µM
TGI (MDA-MB-231 breast): > 100 µM
TGI (MDA-MB-435): > 100 µM
TGI (NCI-H460 lung): > 100 µM
TGI (SF-295 CNS): > 100 µM
TGI (SNB-19 CNS): > 100 µM
TGI (UACC-62 melanoma): > 100 µM

COc1ccc2c(c1)C(=O)c1c-2c(NCCN(C)C)nc2ccccc12
GI50 (CAKI-1 renal): 0.373 µM
TGI (CAKI-1 renal): 2.48 µM
GI50 (HOP-92 NSCLC): 0.0658 µM
TGI (HOP-92 NSCLC): 6.54 µM
GI50 (HT29 colon): 4.41 µM
TGI (HT29 colon): 15.5 µM
GI50 (K-562 leukemia): 2.62 µM
TGI (K-562 leukemia): 14.8 µM
GI50 (MDA-MB-231 breast): 6.59 µM
TGI (MDA-MB-231 breast): 19.9 µM
GI50 (MDA-MB-435): 5.06 µM
TGI (MDA-MB-435): 20.4 µM
GI50 (NCI-H460 lung): 0.671 µM
TGI (NCI-H460 lung): 10.6 µM
GI50 (SF-295 CNS): 3.83 µM
TGI (SF-295 CNS): 17.5 µM
GI50 (SNB-19 CNS): 3.28 µM
TGI (SNB-19 CNS): 12.7 µM
GI50 (UACC-62 melanoma): 15.8 µM
TGI (UACC-62 melanoma): 29.4 µM

Cc1nc2sc(C(=O)Nc3cccc(Br)c3)c(N)c2cc1C(O)c1ccccc1 (stereo not given)
GI50 (CAKI-1 renal): 0.632 µM
TGI (CAKI-1 renal): 15.6 µM
GI50 (HOP-92 NSCLC): 4.27 µM
TGI (HOP-92 NSCLC): 32.4 µM
GI50 (HT29 colon): 0.393 µM
TGI (HT29 colon): > 82.5 µM
GI50 (K-562 leukemia): 0.364 µM
TGI (K-562 leukemia): > 42.7 µM
GI50 (MDA-MB-231 breast): 1.85 µM
TGI (MDA-MB-231 breast): 16.4 µM
GI50 (MDA-MB-435): 0.199 µM
TGI (MDA-MB-435): 0.449 µM
GI50 (NCI-H460 lung): 0.391 µM
TGI (NCI-H460 lung): 4.74 µM
GI50 (SF-295 CNS): 0.765 µM
TGI (SF-295 CNS): 12.1 µM
GI50 (SNB-19 CNS): 1.48 µM
TGI (SNB-19 CNS): 18.9 µM
GI50 (UACC-62 melanoma): 0.622 µM
TGI (UACC-62 melanoma): 16.4 µM

COc1cc2c3c(n(CCCN4CCCC(O)C4)c(=O)c2cc1OC)-c1cc2c(cc1C3=O)OCO2 (stereo not given)
GI50 (CAKI-1 renal): 0.00685 µM
TGI (CAKI-1 renal): 1.36 µM
GI50 (HOP-92 NSCLC): 0.0312 µM
TGI (HOP-92 NSCLC): 0.901 µM
GI50 (HT29 colon): 0.731 µM
TGI (HT29 colon): 9.94 µM
GI50 (K-562 leukemia): 0.0881 µM
TGI (K-562 leukemia): 6.87 µM
GI50 (MDA-MB-231 breast): 0.791 µM
TGI (MDA-MB-231 breast): 1.62 µM
GI50 (MDA-MB-435): 0.836 µM
TGI (MDA-MB-435): 2.98 µM
GI50 (NCI-H460 lung): < 0.005 µM
TGI (NCI-H460 lung): 6.13 µM
GI50 (SF-295 CNS): < 0.005 µM
TGI (SF-295 CNS): 2.65 µM
GI50 (SNB-19 CNS): 0.6 µM
TGI (SNB-19 CNS): 10.5 µM
GI50 (UACC-62 melanoma): 5.01 µM
TGI (UACC-62 melanoma): 12.8 µM

Cc1cc2nc(C(Cl)Cl)nc(-c3ccccc3)n2n1
GI50 (CAKI-1 renal): 2.7 µM
TGI (CAKI-1 renal): 15.4 µM
GI50 (HOP-92 NSCLC): 2.43 µM
TGI (HOP-92 NSCLC): 12.2 µM
GI50 (HT29 colon): 2.77 µM
TGI (HT29 colon): 13.9 µM
GI50 (K-562 leukemia): 4.61 µM
TGI (K-562 leukemia): > 100 µM
GI50 (MDA-MB-231 breast): 3.44 µM
TGI (MDA-MB-231 breast): 20.9 µM
GI50 (MDA-MB-435): 5.84 µM
TGI (MDA-MB-435): 23.9 µM
GI50 (NCI-H460 lung): 1.97 µM
TGI (NCI-H460 lung): 5.13 µM
GI50 (SF-295 CNS): 3.48 µM
TGI (SF-295 CNS): 15.9 µM
GI50 (SNB-19 CNS): 4.04 µM
TGI (SNB-19 CNS): 28 µM
GI50 (UACC-62 melanoma): 8.55 µM
TGI (UACC-62 melanoma): 56 µM

C=C(C)[C@@H]1CC[C@]2(C(N)=O)CC[C@]3(C)[C@H](CC[C@@H]4[C@@]5(C)C/C(=C/c6cccnc6)[C@H](O)C(C)(C)[C@@H]5CC[C@]43C)[C@@H]12
GI50 (CAKI-1 renal): 2.15 µM
TGI (CAKI-1 renal): 28.4 µM
GI50 (HOP-92 NSCLC): 6.37 µM
TGI (HOP-92 NSCLC): > 100 µM
GI50 (HT29 colon): 3.68 µM
TGI (HT29 colon): > 100 µM
GI50 (K-562 leukemia): 3.4 µM
TGI (K-562 leukemia): > 100 µM
GI50 (MDA-MB-231 breast): 99.5 µM
TGI (MDA-MB-231 breast): > 100 µM
GI50 (MDA-MB-435): 3.77 µM
TGI (MDA-MB-435): > 100 µM
GI50 (NCI-H460 lung): 4.22 µM
TGI (NCI-H460 lung): > 100 µM
GI50 (SF-295 CNS): 3.75 µM
TGI (SF-295 CNS): > 100 µM
GI50 (SNB-19 CNS): 6.02 µM
TGI (SNB-19 CNS): > 100 µM
GI50 (UACC-62 melanoma): 5.38 µM
TGI (UACC-62 melanoma): > 100 µM
